Measurements: ChEMBL document CHEMBL1159293, “Additional bioactive acetogenins, annomutacin and (2,4-trans and cis)-10R-annonacin-A-ones, from the leaves of Annona muricata” (J Nat Prod, 1995)
Values after ≈ are worked out from the molar mass of the structure shown.

Key:
MCF7 = assay: Cytotoxicity against human MCF7 cells after 7 days by MTT assay; format: functional; conditions: MCF7, 168 h, read-out: ED50 (the source's name)
[1] = (§1) Toxicity to brine shrimp; format: organism-based; conditions: artemia, in vivo
A549 = assay: Cytotoxicity against human A549 cells after 7 days by MTT assay; format: functional; conditions: A549, 168 h, read-out: ED50 (the source's name)
HT-29 = assay: Cytotoxicity against human HT-29 cells after 7 days by MTT assay; format: functional; conditions: HT-29, 168 h, read-out: ED50 (the source's name)
Artemia = assay: as §1; format: organism-based; conditions: in vivo

Compound `CCCCCCCCCCCC[C@H](O)[C@H]1CC[C@H]([C@H](O)CCCC[C@H](O)CCCCC[C@@H]2C[C@@H](CC(C)=O)C(=O)O2)O1` has an EC50 (MCF7) of 0.57 µg/mL (≈ 0.955 µM), an LC50 [1] of 0.112 µg/mL (≈ 0.188 µM) and an EC50 (A549) of 0.174 µg/mL (≈ 0.292 µM). The EC50 (HT-29) was over 1 µg/mL.
In the case of `CCCCCCCCCCCC[C@H](O)[C@H]1CC[C@H]([C@H](O)CCCC[C@H](O)CCCCC[C@@H]2C[C@H](CC(C)=O)C(=O)O2)O1`, the EC50 (MCF7) is reported as 0.57 µg/mL (≈ 0.955 µM), the LC50 [1] is reported as 0.112 µg/mL (≈ 0.188 µM) and the EC50 (A549) is reported as 0.174 µg/mL (≈ 0.292 µM). It also gave an EC50 (HT-29) of over 1 µg/mL.
For `CCCCCCCCCCCC[C@H](O)[C@@H]1CC[C@@H]([C@@H](O)CCCCCCC(O)CCCCC[C@@H](O)CC2=C[C@H](C)OC2=O)O1` (stereo partly drawn) [ANNOMONTACIN], the EC50 (MCF7) was over 1 µg/mL, the LC50 (Artemia) was 3.91 ×10⁻² ug/ml and the EC50 (A549) was 0.0157 µg/mL (≈ 0.0251 µM). It also gave an EC50 (HT-29) of over 1 µg/mL.
Work on `COc1cccc2c1C(=O)c1c(O)c3c(c(O)c1C2=O)C[C@@](O)(C(=O)CO)C[C@@H]3O[C@H]1C[C@H](N)[C@H](O)[C@H](C)O1` [DOXORUBICIN] yielded an LC50 [1] of 0.313 µg/mL (≈ 0.576 µM).
